The results in this text go back to patent US20200003756A1, “METHOD FOR OBSERVING SEBACEOUS GLAND” (MANDOM CORPORATION, priority 2017, published 2020).

The subject of test [1] is sebaceous-gland-structure A. The experiment in a line: Observation of inside of sebaceous-gland-structure, lipid droplets of sebum in outermost layer / degree of progress of sebum production (Example 2). To be noted: test sample D, linoleic acid 1×10^−4 M plus test substance 1 μM, 24 hours (Experiment number 9); FIGS. 9 and 10. Type of test: cell-based. As for the experimental part:
Linoleic acid and linoleic acid receptor antagonist (manufactured by Abeam plc, trade name: GSK-3787) as test substances were added to the mixed medium obtained in Preparation Example 1 so that the concentration of linoleic acid was 1×10^−4 M and so that the concentration of the test substance was 1 μM, to obtain a test sample D.
One milliliter of the test sample A was added to each well of a 24-well plate. Next, the sebaceous-gland-structure A obtained in Preparation Example 6 was cultured in a suspended state in the test sample A in each well of the 24-well plate in the presence of 5% by volume carbon dioxide at 37° C. for 24 hours, to contact the sebaceous-gland-structure A with the test sample A (Experiment number 7). […]
Furthermore, the state of each cell of 40 cells in the outermost layer shown in each figure was evaluated by using the results shown in FIGS. 7 to 9 on the basis of the evaluation criterion described below. […]
Next, the degree of progress of sebum production in the sebaceous gland cell contained in the sebaceous-gland-structure A was evaluated by calculating the mean value of the points in the 40 cells in the outermost layer in FIGS. 7 to 9. […]

The subject of test [2] is sebaceous-gland-structure A. The experiment in a line: Degree of sebum production from three-dimensional image analysis of outermost layer (Example 4). The format is cell-based. As to conditions: 24 hours. How it is done: Linoleic acid and phytic acid as test substances were added to the mixed medium obtained in Preparation Example 1 (test sample A) so that the concentration of linoleic acid was 1×10^−4M and so that the concentration of the test sample was 100 μM, to obtain a test sample E. One milliliter of the test sample A was added to each well of a 24-well plate. Text, the sebaceous-gland-structure A obtained in Preparation Example 6 was cultured in a suspended state in the test sample A contained in each well of the 24-well plate in the presence of 5% by volume carbon dioxide at 37° C. for 24 hours, to contact the sebaceous-gland-structure A with the test sample A (Experiment number 10). In addition, the sebaceous-gland-structure A was contacted with the test sample B (Experiment number 11) or the test sample E (Experiment number 12) in the same manner as in Experiment, number 10 except that in Experiment number 10, the test sample B obtained in Example 1(1) (Experiment number 11) or the test sample E obtained in Example 4(1) (Experiment number 12) was used in place of the test sample A. Each of observation samples of Experiment numbers 10 to 12 was obtained in the same manner as in Preparation Example 7 except that in Preparation Example 7, the cultured sebaceous-gland-structure A obtained in Example 4(2) (Experiment numbers 10 to 12) was used in place of the cultured sebaceous-gland-structure A obtained in Preparation Example 6. The appearance of the sebaceous-gland-structure A contained in the observation sample of each of Experiment numbers 10 to 12 obtained in Example 4(3) was observed under a confocal microscope by using image analysis software (manufactured b Bitplane AG, trade name: Imaris), thereby giving three-dimensional image of the sebaceous-gland-structure A. Next, information of the outermost layer of the sebaceous-gland-structure A was extracted from the data of the resulting three-dimensional image by using image analysis software (manufactured by Bitplane AG, trade name: Imaris). Thereafter, the whole volume of the cells present in the outermost layer was calculated from the extracted information, and thereafter the sebum droplets contained in the outermost layer were counted. Using the whole volume of the cells present in the outermost layer and the number of lipid droplets of the sebum the degree of sebum production was calculated according to Formula (I): [Degree of Sebum production]=[Number of lipid droplets of sebum]/[Whole volume of cells present in outermost layer] (I)

As to `O=C(NCCS(=O)(=O)c1ccc(C(F)(F)F)cn1)c1ccc(Cl)cc1` [linoleic acid receptor antagonist, GSK-3787], in test [1], the “lipid droplets of sebum in the outermost layer of the sebaceous-gland-structure A” value is “no lipid droplet of sebum was found”.

In the case of `O=P(O)(O)O[C@H]1[C@H](OP(=O)(O)O)[C@@H](OP(=O)(O)O)[C@H](OP(=O)(O)O)[C@@H](OP(=O)(O)O)[C@H]1OP(=O)(O)O` [phytic acid], the sebum production-regulating action entry in test [2] (phytic acid 100 μM in presence of linoleic acid 1×10^−4 M, conclusion from FIG. 11) is given as “sebum production-inhibiting action”. In addition, in test [2] (test sample E, linoleic acid 1×10^−4 M plus phytic acid 100 μM, compared with test sample containing linoleic acid, FIG. 11), the “degree of sebum production (number of lipid droplets of sebum / whole volume of cells present in outermost layer)” value is “lower”.
